Assay results taken from patent publication US11180509B2, “Thiazolidone spiro pyrimidine trione compound, preparation method therefor and uses thereof” (SHANGHAI INSTITUTE OF MATERIA MEDICA, CHINESE ACADEMY OF …, priority 2017, dated 2021).
Converted amounts (≈) assume the structure as drawn. Read-outs that look alike come from different tables or passages of the source.

Columns and labels:
Streptococcus pyogenes = assay: In vitro antibacterial activity, MIC by micro broth dilution; type: cell-based; conditions: read-out: MIC Spy
From the text: (§1) The following strains isolated in clinic were used in antibacterial activity screening in vitro: five strains of methicillin-resistant Staphylococcus aureus or MRSA, five strains of methicillin-sensitive Staphylococcus aureus or MSSA, five strains of methicillin-resistant Staphylococcus epidermidis or MRSE, five strains of methicillin-sensitive Staphylococcus epidermidis or MSSE, three strains of penicillin-resistant Streptococcus pneumoniae or PRSP, and three strains of Streptococcus pyogenes.
(§2) The above strains were clinically isolated pathogenic bacteria collected in Sichuan and Beijing in December 2015. They were identified by the collection unit via a VITEK-60 automatic microbiological identification instrument, and then re-identified by conventional methods in the laboratory. Before the experiment, each strain was purified by a single colony on an agar plate, and the cells freshly cultured at 37° C. overnight were appropriately diluted for the experiment. Quality control strain was Staphylococcus aureus ATCC25923 purchased from the Clinical Testing Center of the Ministry of Health of the People's Republic of China.
(§3) Medium: MH (Mueller-Hinton, hydrolyzed casein) broth (OXOID);
(§4) Culture condition: Incubate at 35-37° C. for 16-18 h.
(§5) The MIC value of each test sample for the tested strain was determined by micro broth dilution method recommended by Performance Standards for Antimicrobial Susceptibility Testing (Twenty-Third Informational Supplement; M02-A11, M07-A9 and M11-A8, 2013) of American Clinical and Laboratory Standards Institute (CLSI).
(§6) After diluting each test sample to different concentrations in MH broth, 100 μl of each sample solution at different concentrations was pipetted into a sterilized 96-well polystyrene plate. In the first to twelfth wells, the drug solution was added, and the final drug concentrations in each well were 64, 32, 16, 8, 4, 2, 1, 0.5, 0.25, 0.125, 0.06, and 0.03 mg/L. The well without drug and without bacteria was set as blank control well. The well with bacteria and without drug was set as a bacterial growth control well.
(§7) The test bacterial solution was adjusted with physiological saline to a bacterial suspension equivalent to 0.5 Maisson turbidity standard, and diluted 1:100 with MH broth. The drug solution was added so that the final concentration of the bacterial solution was about 10^4 CFU/ml; then 100 μl of bacterial solution was pipetted into the above wells (the total volume in each well was 200 μl). The plate was sealed and placed in a 35-37° C. incubator for 18-20 h, and then the results were determined. […] When Streptococcus pneumoniae was tested, sterile defibrillated sheep blood was added into the Colombian broth culture medium at a final concentration of 5% and cultivation was conducted in a 5% CO2 and 35-37° C. incubator for 18-20 hours.

[1] = test system: methicillin-resistant Staphylococcus aureus or MRSA; assay: as above; type: cell-based; conditions: read-out: MIC MRSA
From the text: as §1, §2, §3, §4, §5, §6, §7

[2] = test system: methicillin-resistant Staphylococcus epidermidis or MRSE; assay: as above; type: cell-based; conditions: read-out: MIC MRSE
From the text: as §1, §2, §3, §4, §5, §6, §7

[3] = test system: methicillin-sensitive Staphylococcus aureus or MSSA; assay: as above; type: cell-based; conditions: read-out: MIC MSSA
From the text: as §1, §2, §3, §4, §5, §6, §7

[4] = test system: methicillin-sensitive Staphylococcus epidermidis or MSSE; assay: as above; type: cell-based; conditions: read-out: MIC MSSE
From the text: as §1, §2, §3, §4, §5, §6, §7

[5] = test system: penicillin-resistant Streptococcus pneumoniae or PRSP; assay: as above; type: cell-based; conditions: read-out: MIC PRSP
From the text: as §1, §2, §3, §4, §5, §6, §7

[6] = In vivo pharmacokinetics test in mice (oral); parameters: species or system CD-1 mice; conditions: PO 10.0 mg/kg
Procedure: Healthy female CD-1 mice were randomly divided into five groups and each group comprised three mice. The tested compound was administered orally.
0.030 mL of blood was taken from the orbit of each animal each time and anticoagulated with EDTAK2. The collection time was as follows. PO group: 15 m, 30 mi, 1 h, 2 h, 4 h, 6 h, 8 h, and 24 h after administration of the test compound. The collected blood samples were placed on ice and centrifuged within 30 minutes to separate the plasma (centrifugation conditions: 5000 rpm, 10 minutes, room temperature). The samples were stored at −80° C. before analysis.

[7] = test system: Staphylococcus aureus MRSA15-3; assay: In vitro antibacterial activity against the in vivo test strain (MIC); type: cell-based; conditions: MRSA153
Procedure: as §5, §6
The test bacterial solution was adjusted with physiological saline to a bacterial suspension equivalent to 0.5 Maisson turbidity standard, and diluted 1:100 with MH broth. The drug solution was added so that the final concentration of the bacterial solution was about 10^4 CFU/ml; then 100 μl of bacterial solution was pipetted into the above wells (the total volume in each well was 200 μl). The plate was sealed and placed in a 35-37° C. incubator for 18-20 h, and then the results were determined. […]

[8] = test system: S. aureus MRSA15-3 infected mice; assay: In vivo protection test, systemic infection model (ED50); parameters: species or system Kunming mice; conditions: Staphylococcus aureus
[9] = test system: MRSA, MSSA, MRSE, MSSE, PRSP, and Spy; assay: In vitro antibacterial activity over the whole strain panel, compared with AZD0914; type: cell-based; conditions: against MRSA
From the text: as §1, §2, §5, §6, §7

[10] = In vivo pharmacokinetic test in rats (PO and IV); conditions: SD rats
Procedure: Nine SD rats were randomly divided into three groups and each group comprised three […].
0.100 mL of blood was taken from the orbit of each animal each time and anticoagulated with EDTAK2. The collection time was as follows. (1) PO group (10.0 mg/kg): 15 min, 30 min, 1 h, 2 h, 4 h, 6 h, 8 h, 24 h after administration of the test compound; PO group (100 mg/kg): 15 min, 30 min 1 h, 2 h, 4 h, 6 h, 8 h, 10 h, 24 h, 36 h, 48 h; (2) IV group: 5 min, 15 min, 30 min, 1 h, 2 h, 4 h, 6 h, 8 h, 24 h after administration of the test compound. The collected blood samples were placed on ice and centrifuged within 30 minutes to separate the plasma (centrifugation conditions: 5000 rpm, 10 minutes, 4° C.). The samples were stored at −80° C. before analysis.

[11] = female, CD-1, mouse, plasma, read-out: Cmax
[12] = female, CD-1, mouse, plasma, read-out: MRT
[13] = female, CD-1, mouse, plasma, read-out: Tmax
[14] = po, read-out: ED50 95% confidence limit

Row | Structure (SMILES) | MIC (Streptococcus pyogenes) [µg/mL] | MIC [1] [µg/mL] | MIC [2] [µg/mL] | MIC [3] [µg/mL] | MIC [4] [µg/mL] | MIC [5] [µg/mL] | AUC(0-t) ([6]; female, CD-1, mouse, plasma) [ng·h/mL] | half-life ([6]; female, CD-1, mouse, plasma) [h] | Cmax [6, 11] [ng/mL] | MRT [6, 12] [h] | Tmax [6, 13] [h] | MIC [7] [µg/mL] | ED50 [8] [mg/kg] | ED50 [8, 14] [mg/kg] | other results
1 | C[C@@H]1CN2c3c(cc4c(N5C(=O)OC[C@@H]5C)noc4c3F)CC3(C(=O)NC(=O)NC3=O)[C@H]2[C@H](C)O1 [AZD0914, reference compound] | 0.25 to 0.5 (≈ 0.513 to 1.03 µM) | 0.06 to 1 (≈ 0.123 to 2.05 µM) | 0.06 to 0.25 (≈ 0.123 to 0.513 µM) | 0.125 to 0.25 (≈ 0.256 to 0.513 µM) | 0.06 to 0.25 (≈ 0.123 to 0.513 µM) | 0.25 to 1 (≈ 0.513 to 2.05 µM) | 748 ± 215 | 3.41 ± 0.944 | 183 ± 134 | 7.06 ± 2.92 | 0.583 ± 0.382 | 0.125 (≈ 0.256 µM) | 11.5 | 7.28 to 25.8 | –
2 | C[C@@H]1CN2c3c(cc4c(N5CCSC5=O)noc4c3F)CC3(C(=O)NC(=O)NC3=O)[C@H]2[C@H](C)O1 [Compound 1, (2R,4S,4aS)-11-fluoro-2,4-dimethyl-8-(2-oxothiazolin-3-yl)-1,2,4,4a-tetrahydro-2′H,6H-spiro[isoxazole[4,5-g][1,4]oxazine[4,3-a]quinoline-5,5′-pyrimidine]-2′,4′,6′(1′H,3′H)-trione] | < 0.03 | 0.03 to 0.06 (≈ 0.0613 to 0.123 µM) | < 0.03 | < 0.03 | < 0.03 | < 0.03 | – | – | – | – | – | – | – | – | AUC0→t relative to AZD0914 ([6]; multiple of the AZD0914 value): ~10 times); Cmax relative to AZD0914 ([6]; multiple of the AZD0914 value): ~8 times); AUC0→t ([6]; plasma): 7334 ± 943 ng·h/mL; Cmax ([6]; plasma): 1548 ± 52 ng/mL; MRT ([6]; plasma): 3.70 ± 0.95 h; Tmax ([6]; plasma): 1.33 ± 0.577 h; t1/2 ([6]; plasma): 2.90 ± 1.72 h; in vitro antibacterial activity relative to AZD0914 [9]: about 8 times; melting point: 225 to 226 °C
3 | C[C@@H]1CN2c3c(cc4c(N5C[C@H](C)SC5=O)noc4c3F)CC3(C(=O)NC(=O)NC3=O)[C@H]2[C@H](C)O1 [Compound 2, (2R,4S,4aS)-11-fluoro-2,4-dimethyl-8-((S)-5-methyl-2-oxothiazolin-3-yl)-1,2,4,4a-tetrahydro-2′H,6H-spiro[isoxazole[4,5-g][1,4]oxazine[4,3-a]quinoline-5,5′-pyrimidine]-2′,4′,6′(1′H,3′H)-trione] | < 0.03 | 0.03 to 0.25 (≈ 0.0596 to 0.497 µM) | < 0.03 | 0.03 to 0.06 (≈ 0.0596 to 0.119 µM) | < 0.03 | < 0.03 | 24200 ± 5640 | 6.2 ± 1.4 | 2580 ± 713 | 8.94 ± 2.15 | 2.67 ± 1.15 | < 0.03 | 2.54 | 0.11 to 3.71 | AUC0-t (IV) ([10]; IV 10 mg/kg): 89577 ± 9072 ng·h/mL; Cl (IV) ([10]; IV 10 mg/kg): 1.82 ± 0.214 mL/min/kg; T1/2 (IV) ([10]; IV 10 mg/kg): 4.93 ± 0.844 h; Vdss (IV) ([10]; IV 10 mg/kg): 0.675 ± 0.0578 L/kg; % F ([10]; PO 10 mg/kg): 52.0 ± 8.41%; AUC0-t (PO) ([10]; PO 10 mg/kg): 46598 ± 7538 ng·h/mL; Cmax (PO) ([10]; PO 10 mg/kg): 4430 ± 1250 ng/mL; T1/2 (PO) ([10]; PO 10 mg/kg): 4.38 ± 1.21 h; Cmax (PO) ([10]; PO 100 mg/kg): 32069 ± 7934 ng/mL; MRT ([10]; rat, plasma, IV 10 mg/kg, read-out: MRT (IV)): 6.22 ± 0.601 h; Tmax ([10]; rat, plasma, PO 10 mg/kg): 5.33 ± 1.15 h; MRT ([10]; rat, plasma, PO 10 mg/kg, read-out: MRT (PO)): 7.54 ± 0.773 h; AUC(0-t) ([10]; rat, plasma, PO 100 mg/kg): 509000 ± 65900 ng·h/mL; Tmax ([10]; rat, plasma, PO 100 mg/kg): 5.33 ± 1.15 h; bioavailability ([10]; rat, plasma, PO 100 mg/kg): 55.1 ± 7.1%; MRT ([10]; rat, plasma, PO 100 mg/kg, read-out: MRT (PO)): 11.1 ± 2.11 h; half-life ([10]; rat, plasma, PO 100 mg/kg, read-out: T1/2 (PO) (converted)): 4.19 ± 0.23 h
